Legend:
[1] = Human liver microsomal stability assay; type: in vitro ADME; details: both sexes, pH 7.4; pooled human liver microsomes 0.5 mg/mL, 3 μM compound, NADPH, 45 minute incubation
Protocol: Initial screening of candidate compounds was performed using in vitro assays to determine potency, metabolic stability and solubility in biologically relevant fluids. Potency was assessed using a viability assay based on the survival of the J774 macrophage cell line. […] Like osteoclasts, J774 macrophages are dependent on continued NFκB activation for survival, thereby providing a valuable screen for compounds with anti-inflammatory activity. Metabolic stability was measured by determining the rate of disappearance of compound in the presence of human liver microsomal preparations, as quantified by LC-MS/MS. Solubility was measured by equilibration of the compound in fasted state simulated intestinal fluid (FaSSIF) and quantified by HPLC.
Metabolic stability of APSAC derivatives was measured by determination of the rate of compound disappearance when incubated in the presence of human liver microsomes. Liver microsomes are prepared from the endoplasmic reticulum of hepatocytes and are the primary source of the most important enzymes (cytochrome P450) involved in drug metabolism. Study of drug stability in the presence of liver microsomes is accepted as a valuable model permitting rapid prediction of in vivo drug stability.
Human liver microsomes were obtained from a commercial source. Test compounds (3 μM) were incubated with pooled liver microsomes (male and female). Samples were incubated for a 45 minute period and removed at 5 time points and test compounds were analysed by LC-MS/MS.
The final incubation volume was 25 μL. A control incubation was included for each compound tested, where 0.1 M phosphate buffer pH 7.4 was added instead of NADPH. The control compounds testosterone and 7-hydroxycoumarin were included in each experiment and all incubations were performed singularly for each compound.
Each compound was incubated for 0, 5, 15, 30, and 45 minutes. The control (minus NADPH) was incubated for 45 minutes only. […] The incubation plates were centrifuged at 2500 rpm for 20 minutes at 4° C. to precipitate the protein.
Following protein precipitation, the sample supernatants were combined in cassettes of up to 4 compounds and analysed using standard LC-MS/MS conditions.
From a plot of the natural logarithm of the peak area ratio (i.e., the ratio of compound peak area:internal standard peak area) against time, the gradient of the line was determined. Subsequently, half-life and intrinsic clearance were calculated using the equations below: Eliminated rate constant (k)=(−gradient). […] Pharmacokinetics Studies

[2] = In vivo pharmacokinetics study, oral and intravenous dosing; details: rat, 1 mg/kg; for half-life / bioavailability: male, Sprague-Dawley, plasma; for bioavailability: oral
Protocol: Absorption and metabolic stability were studied using an in vivo pharmacokinetics assay. Drug levels were assessed using ultra-performance LC/TOF-MS.
Three male Sprague-Dawley rats, 200-300 g, were dosed per route. Test compound was administered either orally or intravenously (dose level of 1 mg/kg body weight). Test compound was formulated in 50:50 tetraethylene glycol:PBS for both routes. Animals were given free access to food throughout the study. On the day prior to dosing, the carotid artery was cannulated for sample collection and for the intravenous study the jugular vein was cannulated to enable dosing.
Blood samples were taken from the carotid artery at the following time points and placed in heparinised tubes: • Oral dosing—predose, 0.25, 0.5, 1, 2, 4, 8 and 24 hours post dose. • IV dosing—predose, 0.08, 0.25, 0.5, 1, 2, 4 and 8 hours post dose.
Blood samples were centrifuged to obtain plasma, which was transferred to a separate container and frozen at −20° C.
The supernatants were collected for analysis. The standard samples were prepared similarly, after spiking blank rat plasma samples to study compound concentrations at 1, 2, 5, 10, 20, 50, 100, 200, 500 and 1000 ng/mL. In addition, extra samples were prepared from 0-1 hour i.v. samples by diluting 1/20 with 50% aqueous acetonitrile to avoid exceeding the linear range of the analytical method.
A Waters Acquity liquid ultra-performance chromatographic system (Waters Corp., Milford, Mass., USA) with autosampler, vacuum degasser and column oven was used. The analytical column used for all compounds was a Waters BEH C18, (2.1×50 mm, 1.7 μm, Waters Corp, Milford, Mass., USA) together with a 0.2 μm on-line filter before the column. The eluents were 0.1% acetic acid (A, pH 3.2) and methanol (B). Gradient elution from 5% to 60% B in two minutes was employed, followed by one minute gradient to 90% B and column equilibration. The flow rate was 0.5 mL/min and the column oven temperature was 35° C. The flow was directed to the MS via Water Acquity photo-diode-array (PDA) detector. LC/TOF-MS data were recorded with a Micromass LCT Premier XE time-of-flight (TOF) mass spectrometer (Micromass Ltd., Manchester, England) equipped with a LockSpray electrospray ionization source. A positive ionization mode of electrospray was used for all compounds. The mass range of m/z 100-900 was acquired. The W-option of the reflector was used, and the DRE (dynamic range enhancement) option was set to on. The mass spectrometer and HPLC system were operated under Micromass MassLynx 4.1 software. […] Masslynx 4.1 software was used for controlling the instrumentation and for data processing.
The pharmacokinetic parameters for the test compounds were calculated by WinNonlin Pro (Pharsight Corp, CA) using standard noncompartmental methods. The elimination phase half-life (t1/2) was calculated by least-squares regression analysis of the terminal linear part of the log concentration—time curve. The area under the plasma concentration—time curve (AUC) was determined by use of the linear trapezoidal rule up to the last measurable concentration and thereafter by extrapolation of the terminal elimination phase to infinity.

[3] = system: caspase 3; test: Caspase induction study (Nucview488 fluorogenic substrate) in the presence of TNFα; type: cell-based; details: human monocytes, 10 μM test compound, 10 ng/mL TNFα, Nucview488 stain
Protocol: The ability to activate caspase 3 was studied using a fluorogenic enzyme substrate assay.
Briefly, human primary monocytes were isolated from whole blood using Ficoll gradients. The resulting cells were plated into microwell plates for 24 hours after which non-adherent cells were removed by washing. Cells were differentiated in the presence of 100 ng/mL MCSF. Cells were pre-treated with 10 μM test compound for 1 hour prior to stimulation with 10 ng/mL TNFα. Caspase 3 activation as an indicator of apoptosis was detected using the Nucview488 stain, which was added one hour prior to visualisation. The Nucview488 stain indicates the activation of caspase 3 (CPP32, apopain, YAMA), a cysteine peptidase which plays a key role in the induction of apoptosis in individual whole mammalian cells. Essentially, Nucview488 consists of a fluorogenic DNA dye and a DEVD substrate moiety specific for caspase 3. In itself, Nucview488 is nonfluorescent. However, upon entering the cell cytoplasm, Nucview488 is cleaved by caspase 3 to form a high-affinity DNA dye. The released DNA dye migrates to the cell nucleus to stain the nucleus bright green. This fluorescent staining produced in response to caspase 3 activity is monitored using fluorescent light microscopy.

SMILES | half-life at 3 µM [1] [min] | half-life ([2]; iv) [min] | bioavailability [2] [%] | half-life ([2]; po) [min] | AUC ([2]; i.v.) [ng/mL/min] | AUC ([2]; p.o.) [ng/mL/min] | caspase 3 activation (fluorescence detected by light microscopy) [3]
O=S(=O)(N[C@H]1CC[C@@H](CO)C1)c1ccc(-c2ccc(F)cc2F)cc1 [ABD773, 2′,4′-Difluoro-N-((1 S,3R)-3-(hydroxymethyl)cyclopentyl)biphenyl-4-sulfonamide] | 54 | 48.6 | 13 | 190 | 11900 | 1500 | 
O=S(=O)(N[C@H]1CC[C@@H](CO)CC1)c1ccc(-c2ccc(F)cc2F)cc1 [ABD781, 2′,4′-Difluoro-N-(cis-4-(hydroxymethyl)cyclohexyl)biphenyl-4-sulfonamide] | 41 | 52.2 | 43 | 197 | 22400 | 9600 | significant activation of caspase 3
